Results taken from ChEMBL document CHEMBL1201862, “PubChem BioAssay data set” (2004).
Active and inactive are the calls of the source.

Experiments:
Beta-lactamase [1] = target: Beta-lactamase (Salmonella choleraesuis (strain SC-B67), UniProt Q5J463)
[2] = target: Dual specificity tyrosine-phosphorylation-regulated kinase 1A (Rattus norvegicus, UniProt Q63470); format: biochemical, Homo sapiens
ORF 73 = ORF 73 (Human herpesvirus 8, UniProt O40947); test: inhibitors of C-LANA binding to LBS DNA, dose response, biochemical, fluorescence polarization, cherry-picked samples (AID 504725); set-up: species or system Human gammaherpesvirus 8;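 note: fluorescence polarization of a labeled DNA duplex reporting LANA DNA binding; potency is for inhibitors that block LANA binding to the DNA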
HEK293 [3] = test: HEK cell cytotoxicity by LDH release, dose response, cytotoxicity control for IDE activator project, fluorescence, HEK cells (AID 588440); format: functional, cell-based; settings: Homo sapiens;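 note: cytotoxicity by LDH release measuring loss of membrane integrity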
Beta-lactamase [4] = target: Beta-lactamase (Pseudomonas aeruginosa, UniProt Q79MP6);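 note: biochemical dose-response test of metallo-beta-lactamase enzyme inhibition, read out by epi-absorbance; purified recombinant IMP-1 metallo-beta-lactamase with nitrocefin as substrate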
Insulin-degrading enzyme [5] = target: T1, Insulin-degrading enzyme (Homo sapiens, UniProt P14735); test: activators of endogenous IDE in HEK cells, dose response, cell-based, fluorescence polarization (AID 588439); format: functional
T1 sequence (P14735 whole entry): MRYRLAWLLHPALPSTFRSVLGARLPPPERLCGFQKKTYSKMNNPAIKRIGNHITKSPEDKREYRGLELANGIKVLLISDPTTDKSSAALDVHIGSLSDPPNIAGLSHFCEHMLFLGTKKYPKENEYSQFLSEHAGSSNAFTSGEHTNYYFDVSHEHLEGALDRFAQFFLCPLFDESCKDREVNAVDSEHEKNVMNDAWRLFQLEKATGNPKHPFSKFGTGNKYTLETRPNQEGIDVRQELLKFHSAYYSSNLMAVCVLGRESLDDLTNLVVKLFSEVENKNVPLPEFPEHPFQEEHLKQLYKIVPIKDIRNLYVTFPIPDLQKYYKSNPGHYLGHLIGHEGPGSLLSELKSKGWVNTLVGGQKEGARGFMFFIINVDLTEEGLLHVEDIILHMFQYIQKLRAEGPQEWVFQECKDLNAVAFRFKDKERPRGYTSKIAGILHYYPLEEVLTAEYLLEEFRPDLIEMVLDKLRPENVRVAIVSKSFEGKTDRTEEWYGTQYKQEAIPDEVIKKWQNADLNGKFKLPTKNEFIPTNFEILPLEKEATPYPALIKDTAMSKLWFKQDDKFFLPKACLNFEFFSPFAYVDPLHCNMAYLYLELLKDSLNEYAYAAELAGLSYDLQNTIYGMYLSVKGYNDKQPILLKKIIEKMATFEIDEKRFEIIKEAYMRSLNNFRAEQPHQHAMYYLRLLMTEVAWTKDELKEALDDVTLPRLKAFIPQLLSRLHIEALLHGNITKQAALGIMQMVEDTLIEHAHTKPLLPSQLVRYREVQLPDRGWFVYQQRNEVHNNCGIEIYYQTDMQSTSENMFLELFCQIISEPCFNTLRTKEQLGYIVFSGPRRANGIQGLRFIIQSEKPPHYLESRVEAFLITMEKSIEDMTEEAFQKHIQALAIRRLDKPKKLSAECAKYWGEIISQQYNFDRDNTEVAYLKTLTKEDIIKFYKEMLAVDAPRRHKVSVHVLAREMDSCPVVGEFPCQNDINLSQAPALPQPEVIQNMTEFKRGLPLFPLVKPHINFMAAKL

HEK293 [6] = test: optical interference in Abeta FP readout, dose response, artefact control for IDE activator project, biochemical, fluorescence polarization (AID 588442); format: functional, cell-based; settings: Homo sapiens
HeLa = test: HeLa cell cytotoxicity, dose response, cytotoxicity control, 24 h, cherry-picked samples (AID 504726); format: functional, cell-based; settings: Homo sapiens;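 note: potency for cytotoxicity as loss of luminescence signal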
Insulin-degrading enzyme [7] = target: T1, Insulin-degrading enzyme; test: activators of recombinant IDE enzyme, dose response, counter-screen for IDE activator project, biochemical, fluorescence polarization (AID 588681)
[8] = target: T2, Short transient receptor potential channel 4 (Mus musculus, UniProt Q9QUQ5); test: mouse TRPC4 channel inhibitors, dose response, cell-based, HEK293 TRPC4/mu-opioid, Fluo-4 calcium (AID 434942); format: functional;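 note: potency of inhibitors blocking the TRPC4 calcium response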
T2 sequence (Q9QUQ5 whole entry): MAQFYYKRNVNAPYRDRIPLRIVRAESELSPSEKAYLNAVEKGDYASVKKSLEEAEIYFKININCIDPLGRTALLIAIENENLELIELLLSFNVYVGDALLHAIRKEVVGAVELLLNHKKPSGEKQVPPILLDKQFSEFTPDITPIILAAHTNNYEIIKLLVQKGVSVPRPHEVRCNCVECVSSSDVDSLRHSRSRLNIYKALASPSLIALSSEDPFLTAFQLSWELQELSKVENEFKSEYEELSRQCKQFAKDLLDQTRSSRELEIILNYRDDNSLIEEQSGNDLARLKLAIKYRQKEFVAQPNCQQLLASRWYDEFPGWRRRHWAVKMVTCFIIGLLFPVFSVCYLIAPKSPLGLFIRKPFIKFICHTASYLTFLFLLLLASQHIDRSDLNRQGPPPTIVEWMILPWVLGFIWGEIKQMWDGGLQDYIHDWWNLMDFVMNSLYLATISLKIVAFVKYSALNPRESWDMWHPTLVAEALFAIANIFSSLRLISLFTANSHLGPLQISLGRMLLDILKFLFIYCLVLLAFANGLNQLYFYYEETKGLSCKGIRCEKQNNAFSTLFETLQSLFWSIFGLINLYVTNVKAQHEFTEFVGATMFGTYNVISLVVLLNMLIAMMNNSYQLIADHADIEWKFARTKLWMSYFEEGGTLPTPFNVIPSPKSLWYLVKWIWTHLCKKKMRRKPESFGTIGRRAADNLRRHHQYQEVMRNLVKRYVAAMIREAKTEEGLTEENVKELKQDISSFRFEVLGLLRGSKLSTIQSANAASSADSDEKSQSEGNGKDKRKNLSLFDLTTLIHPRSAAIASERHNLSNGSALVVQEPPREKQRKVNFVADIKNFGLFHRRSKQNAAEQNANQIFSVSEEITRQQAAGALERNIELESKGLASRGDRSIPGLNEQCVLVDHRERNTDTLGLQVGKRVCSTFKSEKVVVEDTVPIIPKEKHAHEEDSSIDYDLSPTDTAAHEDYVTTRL

[9] = insulin promoter down-regulators in MIN6 cells, imaging, high-content screening, mouse beta cells (AID 1628); format: functional
[10] = cytotoxicity in MIN6 insulinoma cells, dose response, cytotoxicity control, cell-based, mouse insulinoma (AID 2122); format: functional;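 note: confirmatory high-throughput counterscreen run to flag cytotoxic compounds; mouse MIN-6 beta cells carrying an insulin promoter eGFP reporter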
[11] = target: T3, Corticotropin-releasing factor receptor 2/Corticotropin-releasing factor-binding protein (Homo sapiens, UniProt P24387+Q13324); test: activators of CRF receptor 2 with binding protein – uHTS hits, confirmation (AID 602473); format: functional; settings: read-out: EC50_Mean
T3 sequence (Q13324 whole entry): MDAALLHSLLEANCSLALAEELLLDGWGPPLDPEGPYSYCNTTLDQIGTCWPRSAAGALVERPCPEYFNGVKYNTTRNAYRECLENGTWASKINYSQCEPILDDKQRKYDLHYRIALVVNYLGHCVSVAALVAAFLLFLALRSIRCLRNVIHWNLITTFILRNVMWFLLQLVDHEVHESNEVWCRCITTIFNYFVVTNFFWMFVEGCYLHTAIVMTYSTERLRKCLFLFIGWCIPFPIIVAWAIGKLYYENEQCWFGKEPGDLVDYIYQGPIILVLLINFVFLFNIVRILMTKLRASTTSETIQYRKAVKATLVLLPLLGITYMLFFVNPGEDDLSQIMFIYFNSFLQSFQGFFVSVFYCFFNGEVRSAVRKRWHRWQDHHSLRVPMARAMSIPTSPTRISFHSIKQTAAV
T3 sequence (P24387 whole entry): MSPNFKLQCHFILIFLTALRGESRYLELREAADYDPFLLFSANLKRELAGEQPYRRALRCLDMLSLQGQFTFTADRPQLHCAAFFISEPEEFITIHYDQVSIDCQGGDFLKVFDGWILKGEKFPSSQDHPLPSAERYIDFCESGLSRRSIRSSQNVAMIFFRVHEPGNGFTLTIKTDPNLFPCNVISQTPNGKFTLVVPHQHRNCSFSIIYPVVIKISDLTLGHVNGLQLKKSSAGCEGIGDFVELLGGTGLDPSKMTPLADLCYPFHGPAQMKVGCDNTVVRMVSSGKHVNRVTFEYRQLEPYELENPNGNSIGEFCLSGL

[12] = target: G-protein coupled receptor 35 (Homo sapiens, UniProt Q9HC97); test: GPR35 antagonists blocking zaprinast-driven arrestin recruitment, primary screen, imaging, U2OS, beta-arrestin-GFP, zaprinast agonist (AID 2058); format: functional;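 note: antagonist potency meaning inhibition of agonist-induced arrestin redistribution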
[13] = target: T2, Short transient receptor potential channel 4; test: mouse TRPC4 channel activators, dose response, cell-based, HEK293 TRPC4/mu-opioid, Fluo-4 calcium (AID 434937); format: functional
Cytochrome P450 2D6 = Cytochrome P450 2D6 (Homo sapiens, UniProt P10635);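 note: CYP2D6 member of a cytochrome P450 panel assay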
Cytochrome P450 2C19 = Cytochrome P450 2C19 (Homo sapiens, UniProt P33261); test: Cytochrome panel assay with activity outcomes. Panel member name: p450-cyp2c19 Compounds with AC50 equal or less than 10 uM are considered active; format: functional; settings: read-out: AC50
Exodeoxyribonuclease V = Exodeoxyribonuclease V (Escherichia coli (strain K12), UniProt P04993+P07648+P08394); test: E. coli RecBCD inhibitors, dose response, counter-screen for AddAB inhibitor project, absorbance, V66 E. coli, mutant T4 phage (AID 492957); format: functional, cell-based, Escherichia coli str. K-12 substr. MG1655
Nonstructural protein 1 = Nonstructural protein 1 (Influenza A virus, UniProt Q194T2); format: functional, Influenza A virus (A/California/07/2009(H1N1))
[14] = Counterscreen for AddAB inhibitors: absorbance-based bacterial cell-based high throughput dose response assay for inhibitors of bacterial viability. [Related pubchem assays (depositor defined):AID435030, AID449728, AID449731, AID488942, AID488955, AID488956]; format: functional
[15] = human group III sPLA2 inhibitors, dose response, biochemical, QFRET, IC50 (AID 743457);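 note: green fluorescence rise as the enzyme cleaves BODIPY PC-A2 in liposomes; potency for inhibition of the enzyme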
Hexokinase = Hexokinase (Trypanosoma brucei, UniProt Q38C41); test: Confirmation assay for inhibitors of Trypanosoma brucei hexokinase 1-Analogue-first series. [Related pubchem assays (depositor defined):AID1430, AID1632, AID2516, AID2560, AID2579, AID2600, AID449725, AID492951]; format: functional
[16] = target: T4, Mannose-6-phosphate isomerase (Homo sapiens, UniProt P34949); test: PMI enzyme inhibitors, confirmation, biochemical, fluorescence intensity (AID 1535)
T4 sequence (P34949 whole entry): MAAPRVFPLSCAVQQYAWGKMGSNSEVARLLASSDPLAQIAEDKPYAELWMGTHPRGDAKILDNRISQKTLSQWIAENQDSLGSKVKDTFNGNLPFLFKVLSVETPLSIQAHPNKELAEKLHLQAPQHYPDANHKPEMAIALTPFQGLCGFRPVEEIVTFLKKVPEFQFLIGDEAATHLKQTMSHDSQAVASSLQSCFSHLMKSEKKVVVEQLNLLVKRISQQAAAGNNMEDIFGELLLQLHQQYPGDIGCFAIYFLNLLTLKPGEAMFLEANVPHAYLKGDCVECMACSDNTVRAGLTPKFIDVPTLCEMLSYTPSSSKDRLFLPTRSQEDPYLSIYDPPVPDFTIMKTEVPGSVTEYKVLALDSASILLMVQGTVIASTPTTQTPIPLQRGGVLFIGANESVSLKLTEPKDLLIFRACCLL

Phosphomannomutase 2 = Phosphomannomutase 2 (Homo sapiens, UniProt O15305); test: Counter screen SAR assay for PMM2 inhibitors via a fluorescence intensity assay. [Related pubchem assays (depositor defined):AID1545, AID1574]
[17] = target: Phosphoethanolamine/phosphocholine phosphatase (Homo sapiens, UniProt Q8TCT1); test: SAR assay for compounds that inhibit PHOSPHO1. [Related pubchem assays (depositor defined):AID1545, AID1565, AID1574]
Phosphoethanolamine/phosphocholine phosphatase, sequence (Q8TCT1 whole entry): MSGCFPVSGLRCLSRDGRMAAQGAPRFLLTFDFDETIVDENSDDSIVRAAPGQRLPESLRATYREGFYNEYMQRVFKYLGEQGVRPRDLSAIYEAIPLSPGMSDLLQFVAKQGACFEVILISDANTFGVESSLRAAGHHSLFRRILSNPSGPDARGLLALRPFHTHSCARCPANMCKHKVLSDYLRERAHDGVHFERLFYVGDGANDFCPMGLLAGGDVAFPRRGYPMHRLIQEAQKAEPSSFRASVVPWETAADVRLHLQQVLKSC

Hexokinase, sequence (Q38C41 whole entry): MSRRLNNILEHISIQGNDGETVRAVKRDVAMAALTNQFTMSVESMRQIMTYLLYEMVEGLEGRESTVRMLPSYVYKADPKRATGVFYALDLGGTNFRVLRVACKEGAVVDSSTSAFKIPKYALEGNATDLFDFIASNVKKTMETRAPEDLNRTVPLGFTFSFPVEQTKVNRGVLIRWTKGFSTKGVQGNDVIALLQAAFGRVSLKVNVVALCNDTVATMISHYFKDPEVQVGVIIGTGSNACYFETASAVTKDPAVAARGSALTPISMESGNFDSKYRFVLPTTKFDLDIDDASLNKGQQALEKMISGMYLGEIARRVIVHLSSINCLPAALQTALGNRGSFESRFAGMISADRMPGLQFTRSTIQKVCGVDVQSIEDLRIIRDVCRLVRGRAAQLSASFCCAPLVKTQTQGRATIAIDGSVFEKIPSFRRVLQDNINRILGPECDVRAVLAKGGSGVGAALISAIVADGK
Phosphomannomutase 2, sequence (O15305 whole entry): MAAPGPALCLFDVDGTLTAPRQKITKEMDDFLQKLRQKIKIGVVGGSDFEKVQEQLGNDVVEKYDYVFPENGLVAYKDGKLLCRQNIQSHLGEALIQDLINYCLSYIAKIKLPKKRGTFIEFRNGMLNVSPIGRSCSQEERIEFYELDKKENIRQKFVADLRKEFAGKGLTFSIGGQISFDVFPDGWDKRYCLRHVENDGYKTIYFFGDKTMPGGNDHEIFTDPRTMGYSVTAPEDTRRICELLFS
Nonstructural protein 1, sequence (Q194T2 whole entry): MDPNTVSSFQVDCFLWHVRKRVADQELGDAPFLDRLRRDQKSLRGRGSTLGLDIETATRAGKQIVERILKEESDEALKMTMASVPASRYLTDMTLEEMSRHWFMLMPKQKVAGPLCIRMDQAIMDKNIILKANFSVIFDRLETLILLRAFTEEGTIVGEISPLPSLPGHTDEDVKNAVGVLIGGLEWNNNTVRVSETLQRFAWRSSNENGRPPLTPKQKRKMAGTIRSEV
Cytochrome P450 2D6, sequence (P10635 whole entry): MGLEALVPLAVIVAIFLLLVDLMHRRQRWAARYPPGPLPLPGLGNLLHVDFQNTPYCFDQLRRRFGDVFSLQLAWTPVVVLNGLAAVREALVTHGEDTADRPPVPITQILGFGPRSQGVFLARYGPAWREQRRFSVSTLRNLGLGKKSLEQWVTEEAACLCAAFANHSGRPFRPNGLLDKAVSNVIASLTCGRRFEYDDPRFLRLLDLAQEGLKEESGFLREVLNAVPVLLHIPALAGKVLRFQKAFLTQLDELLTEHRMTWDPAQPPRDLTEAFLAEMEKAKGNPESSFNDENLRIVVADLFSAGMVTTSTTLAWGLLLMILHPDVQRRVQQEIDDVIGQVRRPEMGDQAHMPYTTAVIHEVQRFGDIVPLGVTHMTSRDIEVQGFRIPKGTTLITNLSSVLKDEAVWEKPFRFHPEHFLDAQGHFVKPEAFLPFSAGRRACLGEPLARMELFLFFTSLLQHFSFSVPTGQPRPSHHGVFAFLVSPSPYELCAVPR
Exodeoxyribonuclease V, sequence (P04993 whole entry): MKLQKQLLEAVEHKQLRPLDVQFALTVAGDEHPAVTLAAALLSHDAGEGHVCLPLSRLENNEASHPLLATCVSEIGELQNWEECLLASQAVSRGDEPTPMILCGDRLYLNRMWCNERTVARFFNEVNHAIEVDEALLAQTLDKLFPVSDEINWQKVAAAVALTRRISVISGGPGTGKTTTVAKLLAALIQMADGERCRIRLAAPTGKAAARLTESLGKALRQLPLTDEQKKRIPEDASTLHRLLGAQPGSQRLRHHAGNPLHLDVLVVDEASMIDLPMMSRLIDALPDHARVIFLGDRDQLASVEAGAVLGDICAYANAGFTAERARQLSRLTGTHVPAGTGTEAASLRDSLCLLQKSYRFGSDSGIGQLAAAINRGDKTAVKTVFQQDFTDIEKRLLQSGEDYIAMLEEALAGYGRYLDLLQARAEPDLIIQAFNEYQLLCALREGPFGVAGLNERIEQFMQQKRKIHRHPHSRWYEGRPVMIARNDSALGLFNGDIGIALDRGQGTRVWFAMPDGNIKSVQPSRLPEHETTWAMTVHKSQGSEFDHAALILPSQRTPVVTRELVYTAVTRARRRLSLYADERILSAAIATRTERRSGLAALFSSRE
Exodeoxyribonuclease V, sequence (P07648 whole entry): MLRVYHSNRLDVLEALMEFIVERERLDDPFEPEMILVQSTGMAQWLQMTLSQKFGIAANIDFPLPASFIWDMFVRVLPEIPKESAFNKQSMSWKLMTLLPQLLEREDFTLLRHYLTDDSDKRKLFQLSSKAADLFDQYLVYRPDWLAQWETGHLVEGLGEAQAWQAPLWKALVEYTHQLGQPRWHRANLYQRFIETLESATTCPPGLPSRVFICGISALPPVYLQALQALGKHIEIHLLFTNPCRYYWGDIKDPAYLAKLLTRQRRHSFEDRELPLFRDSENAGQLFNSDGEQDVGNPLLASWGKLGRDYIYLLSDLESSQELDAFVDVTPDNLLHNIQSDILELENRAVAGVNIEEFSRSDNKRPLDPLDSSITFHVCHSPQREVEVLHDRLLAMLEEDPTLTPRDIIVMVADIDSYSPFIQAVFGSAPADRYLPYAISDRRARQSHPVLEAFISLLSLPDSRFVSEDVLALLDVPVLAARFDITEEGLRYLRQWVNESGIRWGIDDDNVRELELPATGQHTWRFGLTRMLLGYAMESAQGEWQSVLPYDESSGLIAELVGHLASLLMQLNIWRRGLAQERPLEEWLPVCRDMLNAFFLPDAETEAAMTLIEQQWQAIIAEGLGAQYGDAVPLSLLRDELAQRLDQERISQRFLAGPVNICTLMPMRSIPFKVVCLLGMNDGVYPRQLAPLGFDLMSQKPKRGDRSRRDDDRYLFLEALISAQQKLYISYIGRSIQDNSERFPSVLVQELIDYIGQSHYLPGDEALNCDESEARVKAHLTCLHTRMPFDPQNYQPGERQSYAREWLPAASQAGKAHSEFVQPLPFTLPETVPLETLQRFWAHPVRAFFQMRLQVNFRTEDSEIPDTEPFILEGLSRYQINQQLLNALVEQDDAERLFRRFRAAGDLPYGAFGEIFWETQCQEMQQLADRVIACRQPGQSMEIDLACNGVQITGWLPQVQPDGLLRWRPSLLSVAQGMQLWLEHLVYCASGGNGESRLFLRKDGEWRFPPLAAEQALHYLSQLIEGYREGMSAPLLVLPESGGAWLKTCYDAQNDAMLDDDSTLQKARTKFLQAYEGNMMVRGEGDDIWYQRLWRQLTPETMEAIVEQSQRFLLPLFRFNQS
Exodeoxyribonuclease V, sequence (P08394 whole entry): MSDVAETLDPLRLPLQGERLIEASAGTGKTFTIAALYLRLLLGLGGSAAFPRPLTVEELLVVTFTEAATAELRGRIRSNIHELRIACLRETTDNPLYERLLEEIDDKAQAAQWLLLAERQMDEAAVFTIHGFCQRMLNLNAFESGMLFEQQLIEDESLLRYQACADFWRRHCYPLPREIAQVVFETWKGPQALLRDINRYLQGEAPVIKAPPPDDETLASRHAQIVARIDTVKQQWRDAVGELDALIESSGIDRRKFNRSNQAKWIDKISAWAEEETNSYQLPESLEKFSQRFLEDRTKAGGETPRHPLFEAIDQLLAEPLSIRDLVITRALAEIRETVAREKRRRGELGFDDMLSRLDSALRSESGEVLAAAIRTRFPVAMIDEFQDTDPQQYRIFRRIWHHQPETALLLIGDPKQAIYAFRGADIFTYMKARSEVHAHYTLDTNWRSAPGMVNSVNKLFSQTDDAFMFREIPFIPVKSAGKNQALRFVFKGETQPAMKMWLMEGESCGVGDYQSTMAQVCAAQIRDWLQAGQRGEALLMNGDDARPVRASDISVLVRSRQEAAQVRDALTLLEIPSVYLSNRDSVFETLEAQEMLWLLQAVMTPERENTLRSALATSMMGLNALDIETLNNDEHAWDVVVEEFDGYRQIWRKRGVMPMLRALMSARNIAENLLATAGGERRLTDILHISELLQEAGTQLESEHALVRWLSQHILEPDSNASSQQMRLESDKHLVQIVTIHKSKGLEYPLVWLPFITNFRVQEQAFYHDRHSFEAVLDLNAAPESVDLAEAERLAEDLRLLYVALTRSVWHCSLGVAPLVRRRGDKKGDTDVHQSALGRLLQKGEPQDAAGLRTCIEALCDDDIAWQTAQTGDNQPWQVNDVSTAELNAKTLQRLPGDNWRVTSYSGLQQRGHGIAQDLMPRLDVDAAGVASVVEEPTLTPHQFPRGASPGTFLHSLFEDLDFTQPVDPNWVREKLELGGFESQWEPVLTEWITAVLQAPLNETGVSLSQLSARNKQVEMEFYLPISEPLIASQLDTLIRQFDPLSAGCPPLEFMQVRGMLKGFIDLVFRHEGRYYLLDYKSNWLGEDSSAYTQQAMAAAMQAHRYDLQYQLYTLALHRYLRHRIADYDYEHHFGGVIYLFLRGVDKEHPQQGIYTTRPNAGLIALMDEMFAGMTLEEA
G-protein coupled receptor 35, sequence (Q9HC97 whole entry): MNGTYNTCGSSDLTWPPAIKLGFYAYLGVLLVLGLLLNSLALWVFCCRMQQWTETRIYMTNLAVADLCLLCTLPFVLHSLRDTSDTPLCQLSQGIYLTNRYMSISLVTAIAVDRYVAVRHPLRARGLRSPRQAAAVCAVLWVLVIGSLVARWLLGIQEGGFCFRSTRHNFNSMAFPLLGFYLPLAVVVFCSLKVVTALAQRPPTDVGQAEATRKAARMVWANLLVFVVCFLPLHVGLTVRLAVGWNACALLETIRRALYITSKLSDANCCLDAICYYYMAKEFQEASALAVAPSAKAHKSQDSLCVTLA

In the case of `COCCCNc1c(O)nc2cccc3c2c1-c1ccccc1C3=O`, the IC50 (Beta-lactamase [1]) is reported as 0.89 µM (active), the AC50 [2] is reported as 1.57 µM (active) and the AC50 (ORF 73) is reported as 0.526 µM (active). For the same compound, the IC50 (HEK293 [3]) was > 89.2 µM (inactive), the IC50 (Beta-lactamase [4]) was 2.11 µM (active) and the EC50 (Insulin-degrading enzyme [5]) was > 54.7 µM (inactive). The EC50 (HEK293 [6]) was > 54.7 µM (inactive), the AC50 (HeLa) was 66.1 µM (active) and the EC50 (Insulin-degrading enzyme [7]) was > 54.7 µM (inactive).

In the case of `CCc1cc(C(c2cccc(OC)c2)N2CCOCC2)c(NC(=O)c2ccccc2)s1` (stereo not drawn), the EC50 [8] is reported as 1.88 µM (active).

For `COc1cc(-c2nnc3sc(-c4cccs4)nn23)cc(OC)c1OC`, the IC50 [9] was 1.64 µM (active) and the IC50 [10] was 13.9 µM (inactive).

With `CCCCN1C(=O)NC(=O)/C(=C(O)\C=C\c2c[nH]c3ccccc23)C1=O` the EC50 [11] was 6.02 µM (active) and the IC50 [12] was 3.1 µM (active).

For `Cc1onc(-c2ccccc2)c1C(=O)NNC(=S)NC(=O)/C=C/c1ccccc1`, the EC50 [8] was 5.31 µM (active), the EC50 [11] was 3.32 µM (active) and the EC50 [13] was 4.22 µM (active).

For `Cc1ccc(OCC(=O)NNC(=O)CCC(=O)NCc2ccccc2)cc1`, the AC50 (Cytochrome P450 2D6) was “inconclusive” and the AC50 (Cytochrome P450 2C19) was 0.00562 µM (inconclusive).

With `CCCOc1ccccc1N=C(N)Nc1nc(C)cc(C)n1` the IC50 [9] was 1.29 µM (active) and the IC50 [10] was 2.56 µM (active).

For `O=C(NC(=S)NNC(=O)c1ccccc1O)c1cccs1`, the IC50 (Exodeoxyribonuclease V) was 79.9 µM (inactive), the IC50 (Nonstructural protein 1) was 10.6 µM (active) and the IC50 [14] was 66.1 µM (inactive). For the same compound, the IC50 [15] was > 122 µM (inactive).

For `COc1ccc(C(=O)Nc2cc(Cl)ccc2[N+](=O)[O-])cc1`, the IC50 (Hexokinase) was > 25 µM (inactive).

In the case of `N#Cc1ccc(NC(=O)Cn2sc3ccccc3c2=O)cc1`, the IC50 (Hexokinase) is reported as 6.97 µM (active).

For `CN(C)c1ccc(-n2sc3ccccc3c2=O)cc1`, the IC50 [16] was 21.4 µM (active), the IC50 (Phosphomannomutase 2) was > 100 µM (inactive) and the IC50 [17] was 11.4 µM (inactive).

For `O=c1c2ccccc2sn1-c1cccc(S(=O)(=O)Nc2ccc(Cl)cc2)c1`, the IC50 [16] was 1.59 µM (active), the IC50 (Phosphomannomutase 2) was 9.44 µM (active) and the IC50 [17] was 8.2 µM (inactive).
